Test results reported in ChEMBL document CHEMBL1201862, “PubChem BioAssay data set” (2004).
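These data come from cells grown in 96-well plates and exposed to compound for 48 hours at five concentrations. GI50 is the concentration that inhibits growth by half.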 Calls of active or inactive are those of the source. Rule as the data show it: active = GI50 up to about 1.1 µM and inactive = higher.

Key:
Assay in all cases: NCI anticancer screen, dose series, 48 h
SF-268 = system: SF-268
SK-OV-3 = system: SK-OV-3
A498 = system: A498
HOP-62 = system: HOP-62
UO-31 = system: UO-31
ACHN = system: ACHN
A549 = system: A549
NCI-H522 = system: NCI-H522
KM12 = system: KM12
EKVX = system: EKVX
SK-MEL-2 = system: SK-MEL-2
SW-620 = system: SW-620
NCI-H460 = system: NCI-H460
M14 = system: M14
UACC-257 = system: UACC-257
SK-MEL-28 = system: SK-MEL-28

Measured: GI50

CC(=O)c1ccc(NC(=O)C(=O)CC(=O)c2sc(-n3nc(-c4ccccc4)cc3-c3ccccc3)nc2C)cc1
inactive: SF-268 > 100 µM | SK-OV-3 > 100 µM | A498 > 100 µM | HOP-62 > 100 µM | UO-31 > 100 µM | ACHN > 100 µM | A549 > 100 µM | NCI-H522 > 100 µM | KM12 > 100 µM | EKVX > 100 µM | SK-MEL-2 > 100 µM | SW-620 > 100 µM | NCI-H460 > 100 µM | M14 > 100 µM | UACC-257 > 100 µM

O=C(N/N=C/c1ccccc1O)N/N=C/c1ccccc1O
inactive: SF-268 > 100 µM | SK-OV-3 > 100 µM | A498 > 100 µM | HOP-62 > 100 µM | UO-31 > 100 µM | SK-MEL-28 > 100 µM | ACHN > 100 µM | A549 > 100 µM | NCI-H522 > 100 µM | EKVX > 100 µM | SK-MEL-2 > 100 µM | SW-620 > 100 µM | NCI-H460 > 100 µM | M14 > 100 µM | UACC-257 > 100 µM

COC(=O)C(=O)C(C(=O)C(=O)Nc1ccc(Cl)cc1C)c1nc2ccc(C(=O)c3ccccc3)cc2nc1O (centres undefined)
inactive: SF-268 > 100 µM | SK-OV-3 > 100 µM | A498 21.6 µM | HOP-62 > 100 µM | UO-31 49.1 µM | ACHN 76.9 µM | A549 > 100 µM | NCI-H522 37 µM | KM12 63 µM | EKVX > 100 µM | SK-MEL-2 > 100 µM | SW-620 > 100 µM | NCI-H460 > 100 µM | M14 > 100 µM | UACC-257 97.9 µM

O=c1[nH]c2c(O)cccc2c2cc3c(c(O)c12)OCO3 [NARCIPRIMINE]
inactive: SF-268 23.2 µM | SK-OV-3 23.6 µM | A498 21.2 µM | HOP-62 19.2 µM | UO-31 17.1 µM | ACHN 15.8 µM | A549 25.5 µM | NCI-H522 19.3 µM | KM12 16.7 µM | EKVX 25.8 µM | SW-620 26.6 µM | NCI-H460 14.6 µM | M14 20.4 µM | UACC-257 19.7 µM

C[C@]12CC[C@H](OC3CCCCO3)CC1=CC[C@@H]1C2CC[C@]2(C)/C(=N/O)CCC12 (some centres undefined)
inactive: SK-OV-3 34.9 µM | A498 > 100 µM | HOP-62 > 100 µM | UO-31 39.1 µM | SK-MEL-28 21.3 µM | ACHN 18.2 µM | A549 18.5 µM | NCI-H522 16.9 µM | KM12 15.6 µM | EKVX 23.7 µM | SK-MEL-2 36.8 µM | SW-620 36.9 µM | NCI-H460 18.8 µM | M14 21.4 µM | UACC-257 30.3 µM
